Results as given in patent US8414870B2, “Benzylidene substituted 2,4-pentanedione compounds and use thereof as stabilizers” (Sytheon, Ltd., priority 2010, dated 2013).

Key:
[1] = Peroxyl radical antioxidant capacity (ORAC); details: method of Ou et al. 2001
Source text: (§1) The antioxidant profile of the compound of Example 1, Synoxyl™ AS, was compared to two widely used commercial antioxidants, natural tocopherol and Oxynex® ST, a proprietary stabilizer based on Diethylhexyl Syringylidene Malonate (DESM), available form EMD Chemicals, Inc., of Gibbstown, N.J., USA. Several test methods were employed.

[2] = Singlet oxygen antioxidant capacity; details: method of Zhang et al. 2009
Source text: as §1

[3] = Photostabilization of water-soluble dyes, solar simulated light; format: physicochemical; details: 0.05% in dye premix; solar simulated light ~40 hours (without stabilizer color lost within about 2 hours)
Method: The stabilizer compound identified as Synoxyl™ AS according to Example 1 was added to two dye premix formulations as set forth in Table 9 in order to evaluate its ability to reduce the amount of dye fading following exposure to solar simulated light. Control samples without the Synoxyl™ AS were also subjected to the same conditions.

[4] = Superoxide antioxidant capacity; details: method of Dubost et al. 2007
Source text: as §1

[5] = Peroxynitrile antioxidant capacity; details: method of Zhang et al. 2007
Source text: as §1

[6] = Hydroxyl radical antioxidant capacity; details: method of Ou et al. 2002
Source text: as §1

[7] = Stabilization of colored shampoo, fluorescent light aging; format: physicochemical; details: 0.4 g in 120 g shampoo, ambient temperature, 4 weeks (unmodified shampoo 21.6)
Method: The stabilizer compound according to Example 1, Synoxyl™ AS, was added to a commercial shampoo formulation in order to evaluate its ability to reduce the amount of dye fading following exposure to fluorescent lighting. The sample was prepared by dissolving 0.4 g of Synoxyl™ AS in 5 ml of ethanol and then adding the solution to 120 g of Suave® Natural Fresh Mountain Strawberry Shampoo with agitation and agitated for 15 minutes. A sample of the unmodified shampoo and the modified shampoo are then placed into 20 ml glass scintillation vials. Both sets of vials were weathered under fluorescent light aging at ambient temperature for 4 weeks. The L*a*b coordinates before and after exposure are measured using X-Rite 938 Spectra-densitometer. Color change is expressed as Delta E (ΔE) which is calculated by the formula: ΔE=[(ΔL*)^2+(Δa*)^2+(Δb*)^2]^1/2

[8] = Photostabilization of avobenzone in ethanol test solution under sun simulator; format: physicochemical
Method: A comparative photostabilization study was conducted comparing the photostabilization efficacy of Synoxy™ AS with Octocrylene and Oxynex® ST in the stabilization of avobenzone. Samples for evaluation were prepared as follows:
Solutions of the photosensitive material and photostabilizer in ethanol were prepared, typically at a 1:1 to 1:5 weight ratio. A base test solution of 3% Avobenzone+5% Octyl salicylate+10% Homoslate in ethanol (the “Test Solution”) was made. Four additional solutions were prepared by adding 2% Synoxyl™ AS, 4% Octocrylene, 2% Oxynex® ST, and 2% Dehydrozingerone, respectively, to four aliquots of the Test Solution.
Samples of each solution were prepared as ultra h n films between two quartz plates so as to obtain a minimum of 90% light transmission over the entire spectrum range of non absorbing chromophores. […] Each sample was then irradiated under sun simulator (754 W/m^2, 2 MED/h, UV dose from 20 to 100 Jules/cm^2) for various durations and light absorption spectra recorded for each sample at given times. The maximal absorption band λmax of each solution was determined before and after irradiation. The amount of the photosensitive materials remaining in solution after irradiation was calculated as the ratio of theft two maximal absorptions.

[9] = cited from earlier work

| SMILES | Peroxyl (ORAC) [1] | Singlet oxygen [2] | dye fading [3] | Superoxide [4] | Peroxynitrile [5] [Trolox equivalent/gm] | Hydroxyl [6] | change in color, Delta E [7] | stabilization of photosensitive compounds [8] | solubility in chloroform ([9]; chloroform) | solubility in ether ([9]; ether) | solubility in methylene chloride ([9]; methylene chloride) |
| --- | --- | --- | --- | --- | --- | --- | --- | --- | --- | --- | --- |
| COc1cc(C=C(C(C)=O)C(C)=O)ccc1O [Synoxyl ™ AS, 3-(4-Hydroxy, 3-methoxybenzylidene)-2,4-pentanedione] | 14,363 Trolox equivalent/gm | 13,283 Trolox equivalent/gm | did not fade | 1,042 Trolox equivalent/gm | 9 | 47,180 Trolox equivalent/gm | 12.3 | – | – | – | – |
| CCCCC(CC)COC(=O)C(=Cc1cc(OC)c(O)c(OC)c1)C(=O)OCC(CC)CCCC (stereo not shown) [Oxynex ® ST, Diethylhexyl Syringylidene Malonate] | 550 Trolox equivalent/gm | 4,532 Trolox equivalent/gm | – | 0 Trolox equivalent/gm | 0 | 0 Trolox equivalent/gm | – | – | – | – | – |
| COc1cc(/C=C/C(C)=O)ccc1O [Dehydrozingerone] | – | – | – | – | – | – | – | fails to stabilize photosensitive compounds | – | – | – |
| CC1=C(/C=C/C(C)=C/C=C/C(C)=C/C(=O)O)C(C)(C)CCC1 [tretinoin, all-trans-retinoic acid] | – | – | – | – | – | – | – | – | slightly soluble | sparingly soluble | soluble |
